# Results as given in paper doi:10.1101/2021.06.10.447852v1 (biorxiv, 2021).
# System: EZH2 (methyltransferase component of PRC2)
# Assay: cells
# Details: Homo sapiens, HEK-293T, 48 h, read-out: Cell IC50 (H3K27me3) (nM)
row,Structure (SMILES),IC50
1,"CSc1cc(C)[nH]c(=O)c1CN1CCN(C)c2c(Cl)cc(-c3c(C)noc3C)c(Cl)c2C1=O [compound 21, TDI-11904]",6 nM
2,"CSc1cc(C)n(C)c(=O)c1CN1CCN(C)c2c(Cl)cc(-c3c(C)noc3C)c(Cl)c2C1=O [compound 22, 22]",1550 nM
3,"CSc1cc(C)n(C)c(=O)c1CN1CCNc2c(Cl)cc(-c3c(C)noc3C)c(Cl)c2C1=O [compound 23, 23]",167 nM
